Numbered stars: 1 amine (or outer) side, 2 acyl side, 3 side chain; on linkers, the order of the positions; unused ones are H or OH. Square brackets hold non-standard residues; d marks the D form. Side chains are listed from the residue outwards. Peptide text beside a SMILES is read from it. * marks the point of attachment. C18 diacid = O=C(O)CCCCCCCCCCCCCCCCC(=O)*; γGlu = O=C(O)[C@H](CCC(=O)[*:2])N[*:1]; Ac4c = NC1(C(=O)O)CCC1; AEEA = NCCOCCOCC(=O)O; Aib = CC(C)(N)C(=O)O

A short description of the series: Thioflavin T (ThT) fibrillation assay for physical stability. The class given is physicochemical. To be noted: 250 μM in 10 mM HEPES buffer, pH 7.5, 37° C., shaking 960 rpm. Put shortly: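 Fibrillation was followed by ThT (1 μM) fluorescence every 20 min, 444/485 nm, for 250 μM peptide in 10 mM HEPES pH 7.5 shaken at 960 rpm, 37° C. Lag time (t0−2τ) and apparent rate constant (1/τ) come from a sigmoidal fit. Recovery is % of initial concentration remaining soluble after centrifugation and filtration (RP-HPLC).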
In turn, `CC(C)C[C@H](NC(=O)[C@H](CC(C)C)NC(=O)[C@H](Cc1c[nH]c2ccccc12)NC(=O)[C@H](CCC(N)=O)NC(=O)[C@@H](NC(=O)[C@H](Cc1ccccc1)NC(=O)[C@H](CCC(=O)O)NC(=O)[C@H](CCC(N)=O)NC(=O)[C@H](C)NC(=O)[C@H](C)NC(=O)[C@H](CCCCN)NC(=O)[C@H](CO)NC(=O)[C@H](CC(=O)O)NC(=O)[C@H](CC(C)C)NC(=O)[C@H](Cc1ccc(O)cc1)NC(=O)[C@H](CCCCN)NC(=O)[C@H](CO)NC(=O)[C@H](CC(C)C)NC(=O)[C@H](CC(=O)O)NC(=O)[C@H](CO)NC(=O)[C@@H](NC(=O)[C@H](Cc1ccccc1)NC(=O)[C@@H](NC(=O)CNC(=O)[C@H](CCC(N)=O)NC(=O)C(C)(C)NC(=O)[C@@H](N)Cc1c[nH]cn1)[C@@H](C)O)[C@@H](C)O)C(C)C)C(=O)N[C@@H](CC(N)=O)C(=O)N[C@@H](CCCCNC(=O)CC[C@H](NC(=O)CC[C@H](NC(=O)COCCOCCNC(=O)COCCOCCNC(=O)CC[C@H](NC(=O)CCCCCCCCCCCCCCCCC(=O)O)C(=O)O)C(=O)O)C(=O)O)C(N)=O` [Example 8, N^ε29-[(4S)-4-carboxy-4-[[(4S)-4-carboxy-4-[[2-[2-[2-[[2-[2-[2-[[(4S)-4-carboxy-4-(17-carboxyheptadecanoylamino)butanoyl]amino]ethoxy]ethoxy]acetyl]amino]ethoxy]ethoxy]acetyl]amino]butanoyl]amino]butanoyl]-[Aib2,Leu10,Lys17,Ala18,Glu21,Leu27,Lys29]-Glucagon amide] (H-H[Aib]QGTFTSDLSKYLDSKAAQEFVQWLLNK([γGlu-γGlu-AEEA-AEEA-γGlu-C18 diacid])-NH2; N-terminus assumed) gave a THT assay Lag time (Ex. 76) of 45 h.
The figure for `CC(C)C[C@H](NC(=O)[C@H](CC(=O)O)NC(=O)[C@H](CC(C)C)NC(=O)[C@H](Cc1ccc(O)cc1)NC(=O)[C@H](CCCCN)NC(=O)[C@H](CO)NC(=O)[C@H](CC(C)C)NC(=O)[C@H](CC(=O)O)NC(=O)[C@H](CO)NC(=O)[C@@H](NC(=O)[C@H](Cc1ccccc1)NC(=O)[C@@H](NC(=O)CNC(=O)[C@H](CCC(N)=O)NC(=O)C1(NC(=O)[C@@H](N)Cc2c[nH]cn2)CCC1)[C@@H](C)O)[C@@H](C)O)C(=O)N[C@@H](CCCNC(=N)N)C(=O)N[C@@H](CCCNC(=N)N)C(=O)N[C@@H](C)C(=O)N[C@@H](CCCNC(=N)N)C(=O)N[C@@H](CC(=O)O)C(=O)N[C@@H](Cc1ccccc1)C(=O)N[C@H](C(=O)N[C@@H](CCC(N)=O)C(=O)N[C@@H](Cc1c[nH]c2ccccc12)C(=O)N[C@@H](CC(C)C)C(=O)N[C@@H](CC(C)C)C(=O)N[C@@H](CCCCNC(=O)CC[C@H](NC(=O)CC[C@H](NC(=O)COCCOCCNC(=O)COCCOCCNC(=O)CC[C@H](NC(=O)CC[C@H](NC(=O)CCCCCCCCCCCCCCCCC(=O)O)C(=O)O)C(=O)O)C(=O)O)C(=O)O)C(=O)N[C@H](C(N)=O)[C@@H](C)O)C(C)C` [Example 45, N^ε28-[(4S)-4-carboxy-4-[[(4S)-4-carboxy-4-[[2-[2-[2-[[2-[2-[2-[[(4S)-4-carboxy-4-[[(4S)-4-carboxy-4-(17-carboxyheptadecanoylamino)butanoyl]amino]butanoyl]amino]ethoxy]ethoxy]acetyl]amino]ethoxy]ethoxy]acetyl]amino]butanoyl]amino]butanoyl]-[Acb2,Leu10,Leu16,Arg20,Leu27,Lys28]-Glucagon amide] (H-H[Ac4c]QGTFTSDLSKYLDLRRARDFVQWLLK([γGlu-γGlu-AEEA-AEEA-γGlu-γGlu-C18 diacid])T-NH2; N-terminus assumed) is 45 h; for `CC(C)C[C@H](NC(=O)[C@H](Cc1c[nH]c2ccccc12)NC(=O)[C@H](C)NC(=O)[C@@H](NC(=O)[C@H](Cc1ccccc1)NC(=O)[C@H](CCC(=O)O)NC(=O)[C@H](CCCNC(=N)N)NC(=O)[C@H](C)NC(=O)[C@H](CCCNC(=N)N)NC(=O)[C@H](CCCNC(=N)N)NC(=O)[C@H](CO)NC(=O)[C@H](CCC(=O)O)NC(=O)[C@H](CC(C)C)NC(=O)[C@H](Cc1ccc(O)cc1)NC(=O)[C@H](CCCCN)NC(=O)[C@H](CO)NC(=O)[C@H](CC(C)C)NC(=O)[C@H](CC(=O)O)NC(=O)[C@H](CO)NC(=O)[C@@H](NC(=O)[C@H](Cc1ccccc1)NC(=O)[C@@H](NC(=O)CNC(=O)[C@H](Cc1c[nH]cn1)NC(=O)C(C)(C)NC(=O)[C@@H](N)Cc1c[nH]cn1)[C@@H](C)O)[C@@H](C)O)C(C)C)C(=O)N[C@@H](CC(C)C)C(=O)N[C@@H](CCCCNC(=O)CC[C@H](NC(=O)COCCOCCNC(=O)COCCOCCNC(=O)CC[C@H](NC(=O)CC[C@H](NC(=O)CCCCCCCCCCCCCCCCC(=O)O)C(=O)O)C(=O)O)C(=O)O)C(=O)N[C@H](C(N)=O)[C@@H](C)O` [Example 31, N^ε28-[(4S)-4-carboxy-4-[[2-[2-[2-[[2-[2-[2-[[(4S)-4-carboxy-4-[[(4S)-4-carboxy-4-(17-carboxyheptadecanoylamino)butanoyl]amino]butanoyl]amino]ethoxy]ethoxy]acetyl]amino]ethoxy]ethoxy]acetyl]amino]butanoyl]-[Aib2,His3,Leu10,Glu15,Arg20,Glu21,Ala24,Leu27, Lys28]-Glucagon amide] (H-H[Aib]HGTFTSDLSKYLESRRAREFVAWLLK([γGlu-AEEA-AEEA-γGlu-γGlu-C18 diacid])T-NH2; N-terminus assumed) it is 45 h; for `CC(C)C[C@H](NC(=O)[C@H](Cc1ccc(O)cc1)NC(=O)[C@H](CCCCN)NC(=O)[C@H](CO)NC(=O)[C@H](CC(C)C)NC(=O)[C@H](CC(=O)O)NC(=O)[C@H](CO)NC(=O)[C@@H](NC(=O)[C@H](Cc1ccccc1)NC(=O)[C@@H](NC(=O)CNC(=O)[C@H](CCC(N)=O)NC(=O)C(C)(C)NC(=O)[C@@H](N)Cc1c[nH]cn1)[C@@H](C)O)[C@@H](C)O)C(=O)N[C@@H](CC(=O)O)C(=O)N[C@@H](CCCCNC(=O)CC[C@H](NC(=O)CC[C@H](NC(=O)COCCOCCNC(=O)COCCOCCNC(=O)CC[C@H](NC(=O)CCCCCCCCCCCCCCCCC(=O)O)C(=O)O)C(=O)O)C(=O)O)C(=O)N[C@@H](CCCNC(=N)N)C(=O)N[C@@H](CCCNC(=N)N)C(=O)N[C@@H](C)C(=O)N[C@@H](CCCNC(=N)N)C(=O)N[C@@H](CCC(=O)O)C(=O)N[C@@H](Cc1ccccc1)C(=O)N[C@H](C(=O)N[C@@H](CCC(N)=O)C(=O)N[C@@H](Cc1c[nH]c2ccccc12)C(=O)N[C@@H](CC(C)C)C(=O)N[C@@H](CC(C)C)C(=O)N[C@@H](CC(N)=O)C(=O)N[C@H](C(N)=O)[C@@H](C)O)C(C)C` [Example 10, N^ε16-[(4S)-4-carboxy-4-[[(4S)-4-carboxy-4-[[2-[2-[2-[[2-[2-[2-[[(4S)-4-carboxy-4-(17-carboxyheptadecanoylamino)butanoyl]amino]ethoxy]ethoxy]acetyl]amino]ethoxy]ethoxy]acetyl]amino]butanoyl]amino]butanoyl]-[Aib2,Leu10,Lys16,Arg20,Glu21,Leu27]-Glucagon amide] (H-H[Aib]QGTFTSDLSKYLDK([γGlu-γGlu-AEEA-AEEA-γGlu-C18 diacid])RRAREFVQWLLNT-NH2; N-terminus assumed) it is 7 h.
`CC(C)C[C@H](NC(=O)[C@H](Cc1ccc(O)cc1)NC(=O)[C@H](CCCCN)NC(=O)[C@H](CO)NC(=O)[C@H](CC(C)C)NC(=O)[C@H](CC(=O)O)NC(=O)[C@H](CO)NC(=O)[C@@H](NC(=O)[C@H](Cc1ccccc1)NC(=O)[C@@H](NC(=O)CNC(=O)[C@H](CCC(N)=O)NC(=O)C(C)(C)NC(=O)[C@@H](N)Cc1c[nH]cn1)[C@@H](C)O)[C@@H](C)O)C(=O)N[C@@H](CCC(=O)O)C(=O)N[C@@H](CO)C(=O)N[C@@H](CCCNC(=N)N)C(=O)N[C@@H](CCCNC(=N)N)C(=O)N[C@@H](C)C(=O)N[C@@H](CCCNC(=N)N)C(=O)N[C@@H](CCC(=O)O)C(=O)N[C@@H](Cc1ccccc1)C(=O)N[C@H](C(=O)N[C@@H](CCC(N)=O)C(=O)N[C@@H](Cc1c[nH]c2ccccc12)C(=O)N[C@@H](CC(C)C)C(=O)N[C@@H](CC(C)C)C(=O)N[C@@H](CCCCNC(=O)CC[C@H](NC(=O)COCCOCCNC(=O)COCCOCCNC(=O)CC[C@H](NC(=O)CC[C@H](NC(=O)CCCCCCCCCCCCCCCCC(=O)O)C(=O)O)C(=O)O)C(=O)O)C(=O)N[C@H](C(N)=O)[C@@H](C)O)C(C)C` [Example 20, N^ε29-[(4S)-4-carboxy-4-[[2-[2-[2-[[2-[2-[2-[[(4S)-4-carboxy-4-[[(4S)-4-carboxy-4-(17-carboxyheptadecanoylamino)butanoyl]amino]butanoyl]amino]ethoxy]ethoxy]acetyl]amino]ethoxy]ethoxy]acetyl]amino]butanoyl]-[Aib2,Leu10,Glu15,Arg20,Glu21,Leu27,Lys28]-Glucagon amide] (H-H[Aib]QGTFTSDLSKYLESRRAREFVQWLLK([γGlu-AEEA-AEEA-γGlu-γGlu-C18 diacid])T-NH2; N-terminus assumed) showed a THT assay Lag time (Ex. 76) of 6 h.

The values above are taken from patent US9474790B2, “Stable, protracted GLP-1/glucagon receptor co-agonists for medical use” (Novo Nordisk A/S, priority 2013, dated 2016).
